The compounds below were run against T1, glucocorticoid receptor (Homo sapiens, UniProt P04150) (assay: Glucocorticoid receptor binding assay (fluorescence polarisation)). Conditions: competition with Alexa 555 fluorescently-labelled dexamethasone derivative, full length glucocorticoid receptor; read-out: glucocorticoid binding pIC50 (converted).
T1 construct: a partially purified full length glucocorticoid receptor
T1 sequence (P04150 1-777): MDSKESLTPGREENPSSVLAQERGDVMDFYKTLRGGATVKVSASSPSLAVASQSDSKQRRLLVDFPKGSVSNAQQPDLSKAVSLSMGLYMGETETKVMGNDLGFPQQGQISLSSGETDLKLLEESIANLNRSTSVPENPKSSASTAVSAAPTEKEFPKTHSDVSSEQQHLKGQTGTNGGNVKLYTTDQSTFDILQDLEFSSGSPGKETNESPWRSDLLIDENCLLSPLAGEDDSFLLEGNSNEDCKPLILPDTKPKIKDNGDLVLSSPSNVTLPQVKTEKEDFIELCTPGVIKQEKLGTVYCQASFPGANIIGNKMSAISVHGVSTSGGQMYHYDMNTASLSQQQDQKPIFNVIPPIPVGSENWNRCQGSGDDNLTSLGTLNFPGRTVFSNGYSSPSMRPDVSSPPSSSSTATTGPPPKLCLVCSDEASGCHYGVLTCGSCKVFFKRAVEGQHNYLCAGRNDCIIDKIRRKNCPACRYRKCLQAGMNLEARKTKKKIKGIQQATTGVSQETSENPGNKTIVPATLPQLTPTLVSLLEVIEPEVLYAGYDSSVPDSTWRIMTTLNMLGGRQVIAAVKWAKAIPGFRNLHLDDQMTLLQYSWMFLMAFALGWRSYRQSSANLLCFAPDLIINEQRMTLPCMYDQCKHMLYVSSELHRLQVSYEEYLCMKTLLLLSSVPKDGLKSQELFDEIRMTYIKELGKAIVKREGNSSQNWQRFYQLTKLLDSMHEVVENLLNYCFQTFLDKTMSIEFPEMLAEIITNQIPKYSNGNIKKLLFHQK
Method in brief: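 Compounds in DMSO incubated with fluorescent dexamethasone and partially purified full-length GR plus stabilising buffer components, 2 hrs at room temperature in the dark. Displacement read as decrease in fluorescence polarisation; pIC50 estimated from dose-response curves.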
Work on Nc1c(C(=O)NCC(O)(CNC(=O)c2c(Cl)cccc2Cl)C(F)(F)F)cnn1-c1ccc(F)cc1 (single isomer, unassigned) [Example 3 Enantiomer 1, 5-Amino-N-[2-({[(2,6-dichlorophenyl)carbonyl]amino}methyl)-3,3,3-trifluoro-2-hydroxypropyl]-1-(4-fluorophenyl)-1H-pyrazole-4-carboxamide] yielded an IC50 of at most 316 nM.
CCN(CC(O)(CNC(=O)c1cnn(-c2ccc(F)cc2)c1N)C(F)(F)F)C(=O)c1ccccc1S(C)(=O)=O (single isomer, unassigned) [Example 10 Enantiomer 1, 5-Amino-N-{2-[(ethyl{[2-(methylsulfonyl)phenyl]carbonyl}amino)methyl]-3,3,3-trifluoro-2-hydroxypropyl}-1-(4-fluorophenyl)-1H-pyrazole-4-carboxamide] gave an IC50 of at most 316 nM.
In the case of Nc1c(C(=O)NCC(O)(CNC(=O)c2c(Br)cccc2Br)C(F)(F)F)cnn1-c1ccc(F)cc1 (single isomer, unassigned) [Example 11 Enantiomer 1, 5-Amino-N-[2-({[(2,6-dibromophenyl)carbonyl]amino}methyl)-3,3,3-trifluoro-2-hydroxypropyl]-1-(4-fluorophenyl)-1H-pyrazole-4-carboxamide], the IC50 is reported as at most 316 nM.
With Nc1c(C(=O)NCC(O)(CNC(=O)c2c(Cl)cccc2Br)C(F)(F)F)cnn1-c1ccc(F)cc1 (single isomer, unassigned) [Example 12 Enantiomer 1, 5-Amino-N-[2-({[(2-bromo-6-chlorophenyl)carbonyl]amino}methyl)-3,3,3-trifluoro-2-hydroxypropyl]-1-(4-fluorophenyl)-1H-pyrazole-4-carboxamide] the IC50 was at most 316 nM.
Nc1c(C(=O)NCC(O)(CNC(=O)c2c(F)cccc2Br)C(F)(F)F)cnn1-c1ccc(F)cc1 (single isomer, unassigned) [Example 13 Enantiomer 1, 5-Amino-N-[2-({[(2-bromo-6-fluorophenyl)carbonyl]amino}methyl)-3,3,3-trifluoro-2-hydroxypropyl]-1-(4-fluorophenyl)-1H-pyrazole-4-carboxamide] gave an IC50 of at most 316 nM.
Work on Nc1c(C(=O)NCC(O)(CNC(=O)c2c(Cl)cccc2OC(F)F)C(F)(F)F)cnn1-c1ccc(F)cc1 (single isomer, unassigned) [Example 14 Enantiomer 1, 5-Amino-N-(2-{[({2-chloro-6-[(difluoromethyl)oxy]phenyl}carbonyl)amino]methyl}-3,3,3-trifluoro-2-hydroxypropyl)-1-(4-fluorophenyl)-1H-pyrazole-4-carboxamide] yielded an IC50 of at most 316 nM.
For Nc1c(C(=O)NCC(O)(CNC(=O)c2c(C(F)F)cccc2C(F)F)C(F)(F)F)cnn1-c1ccc(F)cc1 (single isomer, unassigned) [Example 43 Enantiomer 1, 5-Amino-N-{2-[({[2,6-bis(difluoromethyl)phenyl]carbonyl}amino)methyl]-3,3,3-trifluoro-2-hydroxypropyl}-1-(4-fluorophenyl)-1H-pyrazole-4-carboxamide], the IC50 was at most 316 nM.
Nc1c(C(=O)NCC(O)(CNC(=O)c2c(Cl)cccc2C(F)(F)F)C(F)(F)F)cnn1-c1ccc(F)cc1 (single isomer, unassigned) [Example 44 Enantiomer 1, 5-Amino-N-{2-[({[2-chloro-6-(trifluoromethyl)phenyl]carbonyl}amino)methyl]-3,3,3-trifluoro-2-hydroxypropyl}-1-(4-fluorophenyl)-1H-pyrazole-4-carboxamide] was tested, and the IC50 was at most 316 nM.
Nc1c(C(=O)NCC(O)(CNC(=O)c2c(Br)cccc2C(F)(F)F)C(F)(F)F)cnn1-c1ccc(F)cc1 (single isomer, unassigned) [Example 45 Enantiomer 1, 5-Amino-N-{2-[({[2-bromo-6-(trifluoromethyl)phenyl]carbonyl}amino)methyl]-3,3,3-trifluoro-2-hydroxypropyl}-1-(4-fluorophenyl)-1H-pyrazole-4-carboxamide] gave an IC50 of at most 316 nM.
With Nc1c(C(=O)NCC(O)(CNC(=O)c2c(F)cccc2OC(F)F)C(F)(F)F)cnn1-c1ccc(F)cc1 (single isomer, unassigned) [Example 48 Enantiomer 1, 5-Amino-N-(2-{[({2-[(difluoromethyl)oxy]-6-fluorophenyl}carbonyl)amino]methyl}-3,3,3-trifluoro-2-hydroxypropyl)-1-(4-fluorophenyl)-1H-pyrazole-4-carboxamide] the IC50 was at most 316 nM.
